Laboratory results reported in patent publication US8084459B2, “Substituted quinazolinones for treating neurological conditions” (Prana Biotechnology Ltd, priority 2004, dated 2011).

Tests used:
[1] = Assay 16 mouse plasma levels of test compounds; format: in vivo; conditions: for Conc. in mouse plasma / concentration at 30 min / concentration at 60 min: single mouse; for Assay 16 Mice plasma concentration: highest level found in mice (Up to), oral dosing 30 mg/kg described for PB 1075-1077; for concentration at 30 min / concentration at 60 min: mouse, plasma, po, 30 mg/kg, read-out: Conc. in mouse plasma
Method in brief: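 Compound given orally by gavage at 30 mg/kg as CMC suspension to four mice; two sacrificed at 30 min and two at 60 min, plasma from cardiac blood. Plasma levels by LC/MS (triple quadrupole, C8 column, ACN/water 0.05% formic acid gradient) after ACN protein precipitation.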

[2] = Assay 3(d) test compound cytotoxicity (MTS); format: cell-based; conditions: BL6Jx129sv, mouse, primary cortical neuronal cultures, cortical neurons; for viability at 4 days, 1 µM: read-out: Assay 3(d) Cytotoxicity (% viable at 1 uM); for viability at 4 days, 10 µM: read-out: Assay 3(d) Cytotoxicity (% viable at 10 uM)
Method in brief: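 E14 mouse (BL6Jx129sv) primary cortical neurons cultured 5 days, then exposed on day 6 to compound prediluted in Neurobasal/B27 without antioxidants, working solutions 2.5, 25, 250 uM, in triplicate for 4 days at 37 °C. Viability by MTS, 2 h at 37 °C, absorbance 560 nm.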

[3] = tested on: soluble and insoluble Aβ in the brain; test: Assay 11 effect on Aβ deposits in transgenic animals (soluble and insoluble Aβ, Western blot); format: in vivo, APP2576 transgenic mouse; conditions: APP2576 mice; for Tg mice Insoluble Fraction: % change compared with vehicle alone control mice: insoluble Aβ; for Tg mice Soluble Fraction: % change compared with vehicle alone control mice: soluble Aβ
Aβ plaques = test: Assay 14 transgenic mouse brain immunohistochemistry (plaque score); format: in vivo; conditions: APP2576 mice
From the text: Assay 14. Transgenic Mouse Brain Immunohistochemistry
The APP2576 transgenic mouse (Hsiao et al., 1996) as referred to in Assay 11 is utilized in this assay. The contralateral formalin-fixed mouse brain tissue is coronally cut. Sections (10 μm) are taken from the corresponding sites and treated with 80% formic acid for antigen retrieval. The primary antibody used is monoclonal antibody 1E8, which recognizes epitopes between residues 18 and 22 of Aβ (SmithKline Beecham, UK). Immunoreactivity is developed with secondary antibody linked to horseradish peroxidase (using a 3,39-diaminobenzidinechromagen) (Dako) and alkaline phosphatase (using 5-bromo-4-chloro 3-indoxyl phosphate and nitroblue tetrazolium chloride chromagen) (Dako). Plaque abundance per section is assessed by two operators blinded to treatment according to the following scale:
1=plaques present but very sparse
2=several plaques present
3=numerous plaques visible in restricted areas
4=plaques abundant and not restricted to any particular area.
Intermediate values eg 2.5 are assigned where applicable. Students ‘t’ test is used for comparisons between groups.

[4] = 30 min after oral dosing at 30 mg/kg
[5] = 60 min after oral dosing at 30 mg/kg

Structure (SMILES) | Conc. in mouse plasma ([1]; 30 min after oral dosing at 30 mg/kg, listed as PB 1075, 30 mg/kg) [ng/mL] | Conc. in mouse plasma ([1]; 60 min after oral dosing at 30 mg/kg, listed as PB 1075, 30 mg/kg) [ng/mL] | Assay 16 Mice plasma concentration [1] | concentration at 30 min [1, 4] [ng/mL] | concentration at 60 min [1, 5] [ng/mL] | viability at 4 days, 1 µM [2] [%] | viability at 4 days, 10 µM [2] [%] | Tg mice Insoluble Fraction: % change compared with vehicle alone control mice [3] | Tg mice Soluble Fraction: % change compared with vehicle alone control mice [3] | Plaques score: average count score per treatment group relative to the vehicle (sham) treated group (Aβ plaques) | Conc. in mouse plasma ([1]; 30 min after oral dosing at 30 mg/kg, listed as PB 1077, 30 mg/kg) [ng/mL] | Conc. in mouse plasma ([1]; 60 min after oral dosing at 30 mg/kg, listed as PB 1077, 30 mg/kg) [ng/mL]
O=c1c2c(Cl)cc(Cl)c(O)c2ncn1CCN1CCCC1 [Compound 1075] | 298.46 | 424.81 | Up to 520 ng/mL | 431 | 520 | 99 | 87 | +9% (insol), | −19% (sol), | −22% (plaque) | – | –
O=c1c2c(Cl)cc(Cl)c(O)c2ncn1Cc1ccccn1 [Compound 1077] | – | – | Up to 984 ng/mL | 731 | 495 | 101 | 86 | Negligible effect on | −17% (sol), | −30% (plaque) | 984.7 | 752.8
Cc1nc(Cn2cnc3c(O)c(Cl)cc(Cl)c3c2=O)cs1 [Compound 1084] | – | – | Upto 2439 ng/mL | – | – | 100 | 93 | −17% (insol), | −29% (sol) | −21% (plaque) | – | –
Cc1noc(C)c1Cn1cnc2c(O)c(Cl)cc(Cl)c2c1=O [Compound 1085] | – | – | Upto 3644 ng/mL | – | – | 99 | 72 | – | – | – | – | –
Br.CCCn1cnc2c(O)c(Cl)cc(Cl)c2c1=O [Compound 1097] | – | – | Upto 261 ng/mL in | – | – | 99 | 78 | +1% (insol) | −22% (sol) | −3% (plaque) | – | –
